Assay results reported in patent US20100222322A1, “Non-Nucleoside Reverse Transcriptase Inhibitors” (MERCK & CO., INC., priority 2005, published 2010).
Where two headings read alike, the source gives them in different places.

What was measured:
[1] = target: T1, mutant HIV reverse transcriptase with the Y181C mutation (Human immunodeficiency virus type 1 group M subtype B, UniProt P04585, Y768C); assay: Analogous RT inhibition assay, Y181C mutant; format: biochemical
T1 construct: mutations that occur in the reverse transcriptase segment of the pol gene; made in house
Method: (§1) 100 μL reaction mixtures were initiated with a combination of primer-template substrate (10 nM final concentration) and dNTPs (0.6 μM dNTPs, 0.75 μM [^3H]-dGTP). The heterodimeric nucleic acid substrate was generated by annealing the DNA primer pD500 (described in Shaw-Reid et al., J. Biol. Chem., 278: 2777-2780; obtained from Integrated DNA Technologies) to t500, a 500 nucleotide RNA template created by in vitro transcription (see Shaw-Reid et al., J. Biol. Chem., 278: 2777-2780). After 1 hour incubation at 37° C., reactions were quenched by 10 μL streptavidin scintillation proximity assay beads (10 mg/mL, from Amersham Biosciences) in 0.5 M EDTA, pH 8. Microtiter plates were incubated an additional 10 minutes at 37° C. prior to quantification via Topcount (Packard).
(§2) Analogous assays were conducted substituting mutant HIV strains to determine the […] inhibition of compounds of the present invention against mutant HIV reverse transcriptase. In one strain the reverse transcriptase has the Y181C mutation and in the other strain the reverse transcriptase has the K103N mutation. The mutations were generated with the […] site-directed mutagenesis kit (Stratagene). […] The compounds set forth in the other Examples were not tested in the Y181C assay. […] The compounds set forth in the other Examples were not tested in the K103N assay.

[2] = target: T2, mutant HIV reverse transcriptase with the K103N mutation (Human immunodeficiency virus type 1 group M subtype B, UniProt P04585, K690N); assay: Analogous RT inhibition assay, K103N mutant; format: biochemical
T2 construct: mutations that occur in the reverse transcriptase segment of the pol gene; made in house
Method: as §1, §2

[3] = test system: HIV replication in T-lymphoid cells; assay: Spread assay: inhibition of acute HIV infection of T-lymphoid cells; format: cell-based; settings: read-out: IC95, spread assay (inhibition of HIV replication)
Method: An assay for the inhibition of acute HIV infection of T-lymphoid cells (alternatively referred to herein as the “spread assay”) was conducted in accordance with Vacca, J. P. et al., Proc. Natl. Acad. Sci. USA 1994, 91: 4096. […] The compounds of Examples 26, 29, 30, 33-35 and 62 were tested in the spread assay up to 10 micromolar, but specific IC95 values were not obtained; i.e., the IC95 values were greater than 10 micromolar. The compounds of Examples 47 and 61 were not tested.

[4] = Human immunodeficiency virus 1, acute HIV infection of T-lymphoid cells, tested up to 10 micromolar
[5] = RT with Y181C mutation, tested up to 20 micromolar, read-out: IC50, Y181C mutant assay
[6] = RT with K103N mutation, tested up to 20 micromolar, read-out: IC50, K103N mutant assay

Compound | IC50 [1] [nM] | IC50 [2] [nM] | IC95 [3, 4] [nM] | IC50 [1, 5] [nM] | IC50 [2, 6] [nM] | IC95 ([3]; Human immunodeficiency virus 1, T-lymphoid) [nM]
O=C(NCc1c(F)cccc1Cl)c1[nH]c2ccc(Br)cc2c1S(=O)(=O)N1CCCC1 [Example 48, 5-bromo-N-(2-chloro-6-fluorobenzyl)-3-(pyrrolidin-1-ylsulfonyl)-1H-indole-2-carboxamide] | < 1000 | < 1000 | < 1000 | – | – | –
NC(=O)c1[nH]c2ccc(Br)cc2c1S(=O)(=O)N1CC=CC1 [Example 10, 5-bromo-3-(2,5-dihydro-1H-pyrrol-1-ylsulfonyl)-1H-indole-2-carboxamide] | < 1000 | < 1000 | < 1000 | – | – | –
NC(=O)c1[nH]c2ccc(Cl)cc2c1S(=O)(=O)N1CCCCC1 [Example 5, 5-chloro-3-(piperidin-1-ylsulfonyl)-1H-indole-2-carboxamide] | – | > 20000 | < 1000 | < 1000 | – | –
NC(=O)c1[nH]c2ccc(Cl)cc2c1S(=O)(=O)N1CCC(F)C1 (stereo not drawn) [Example 38, 5-chloro-3-[(3-fluoropyrrolidin-1-yl)sulfonyl]-1H-indole-2-carboxamide] | – | 1000 to 20000 | < 1000 | < 1000 | – | –
NC(=O)c1[nH]c2ccc(Br)cc2c1S(=O)(=O)NC1CC1 [Example 11, 5-bromo-3-[(cyclopropylamino)sulfonyl]-1H-indole-2-carboxamide] | 1000 to 20000 | > 20000 | < 1000 | – | – | –
NC(=O)c1[nH]c2ccc(Br)cc2c1S(=O)(=O)N1CCC[C@H]1C(F)(F)F [Example 19, 5-bromo-3-{[(2S)-2-(trifluoromethyl)pyrrolidin-1-yl]sulfonyl}-1H-indole-2-carboxamide] | 1000 to 20000 | – | < 1000 | – | > 20000 | –
COC[C@@H]1CCCN1S(=O)(=O)c1c(C(N)=O)[nH]c2ccc(Br)cc12 [Example 15, 5-bromo-3-{[(2S)-2-(methoxymethyl)pyrrolidin-1-yl]sulfonyl}-1H-indole-2-carboxamide] | – | – | < 1000 | < 1000 | 1000 to 20000 | –
O=C(NCc1cncs1)c1[nH]c2ccc(Br)cc2c1S(=O)(=O)N1CCCC1 [Example 65, 5-bromo-3-(pyrrolidin-1-ylsulfonyl)-N-(1,3-thiazol-5-ylmethyl)-1H-indole-2-carboxamide] | < 1000 | < 1000 | < 1000 | – | – | –
NC(=O)c1[nH]c2ccc(Br)cc2c1S(=O)(=O)NC1CCCC1 [Example 17, 5-bromo-3-[(cyclopentylamino)sulfonyl]-1H-indole-2-carboxamide] | – | – | < 1000 | < 1000 | > 20000 | –
CN(C1CC1)S(=O)(=O)c1c(C(N)=O)[nH]c2ccc(Br)cc12 [Example 8, 5-bromo-3-{[cyclopropyl(methyl)amino]sulfonyl}-1H-indole-2-carboxamide] | 1000 to 20000 | > 20000 | < 1000 | – | – | –
NC(=O)c1[nH]c2ccc(Br)cc2c1S(=O)(=O)N1CCCCC1 [Example 13, 5-bromo-3-(piperidin-1-ylsulfonyl)-1H-indole-2-carboxamide] | – | – | < 1000 | < 1000 | 1000 to 20000 | –
O=C(NCCO)c1[nH]c2ccc(Br)cc2c1S(=O)(=O)N1CCCC1 [Example 32, 5-bromo-N-(2-hydroxyethyl)-3-(pyrrolidin-1-ylsulfonyl)-1H-indole-2-carboxamide] | < 1000 | 1000 to 20000 | – | – | – | < 1000
NC(=O)c1[nH]c2ccc(Br)cc2c1S(=O)(=O)NCCS(N)(=O)=O [Example 9, 3-({[2-(aminosulfonyl)ethyl]amino}sulfonyl)-5-bromo-1H-indole-2-carboxamide] | 1000 to 20000 | 1000 to 20000 | < 1000 | – | – | –
CON(C)S(=O)(=O)c1c(C(N)=O)[nH]c2ccc(Br)cc12 [Example 12, 5-bromo-3-{[methoxy(methyl)amino]sulfonyl}-1H-indole-2-carboxamide] | > 20000 | > 20000 | < 1000 | – | – | –
O=C(NCc1ccncc1)c1[nH]c2ccc(Br)cc2c1S(=O)(=O)N1CCCC1 [Example 64, 5-bromo-N-(pyridin-4-ylmethyl)-3-(pyrrolidin-1-ylsulfonyl)-1H-indole-2-carboxamide] | < 1000 | < 1000 | < 1000 | – | – | –
